Source: ChEMBL document CHEMBL1201862, “PubChem BioAssay data set” (2004)
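How tested: cells in 96-well plates exposed to compound for 48 hours at five concentrations. GI50 = concentration required for 50% inhibition of growth.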 Active and inactive are the calls of the source. Rule as the data show it: active = GI50 up to about 1.1 µM and inactive = higher.

How the values were obtained:
Assay in all cases: NCI anticancer screen, dose series, 48 h
HCC 2998 = tested on: HCC 2998
SK-MEL-5 = tested on: SK-MEL-5
BT-549 = tested on: BT-549
SNB-19 = tested on: SNB-19
UO-31 = tested on: UO-31
SN12C = tested on: SN12C
LOX IMVI = tested on: LOX IMVI
COLO 205 = tested on: COLO 205
SW-620 = tested on: SW-620
HOP-92 = tested on: HOP-92
OVCAR-3 = tested on: OVCAR-3
DU-145 = tested on: DU-145
SR = tested on: SR
NCI/ADR-RES = tested on: NCI/ADR-RES
MDA-N = tested on: MDA-N
A498 = tested on: A498
HL-60 = tested on: HL-60
SF-539 = tested on: SF-539
SNB-75 = tested on: SNB-75
NCI-H23 = tested on: NCI-H23

Measured: GI50

C=C(Cl)C(C)(Cl)CCC(Br)C(C)(C)Cl (centres undefined)
inactive: HCC 2998 19.5 µM | SK-MEL-5 16.9 µM | BT-549 20.6 µM | SNB-19 51.5 µM | UO-31 15.4 µM | SN12C 16.7 µM | LOX IMVI 13.3 µM | COLO 205 17.3 µM | SW-620 16.9 µM | HOP-92 18.8 µM | OVCAR-3 18.2 µM | DU-145 20.9 µM | SR 21.9 µM | NCI/ADR-RES 29.4 µM | MDA-N 15.8 µM | A498 41.5 µM | HL-60 37.1 µM | SF-539 27.8 µM | SNB-75 12.3 µM | NCI-H23 19.1 µM

C1CCNCC1.S=C(S)N1CCCCC1
active: SW-620 0.573 µM | SR 0.46 µM | HL-60 0.307 µM
inactive: HCC 2998 100 µM | SK-MEL-5 1.74 µM | BT-549 406 µM | SNB-19 149 µM | UO-31 58.7 µM | SN12C 64.6 µM | LOX IMVI 60.5 µM | HOP-92 95.1 µM | OVCAR-3 71 µM | DU-145 140 µM | NCI/ADR-RES 19.3 µM | MDA-N 13.1 µM | A498 36.7 µM | SF-539 80.7 µM | SNB-75 61.2 µM | NCI-H23 62.2 µM

COc1ccc2c(c1[N+](=O)[O-])CC[C@@H]1[C@@H]2CC[C@]2(C)C(=O)CC[C@@H]12
inactive: HCC 2998 > 1000 µM | SK-MEL-5 > 25 µM | BT-549 > 25 µM | SNB-19 24.2 µM | UO-31 > 25 µM | SN12C > 25 µM | LOX IMVI > 25 µM | COLO 205 21.8 µM | SW-620 > 25 µM | HOP-92 21.4 µM | OVCAR-3 > 25 µM | DU-145 > 25 µM | SR > 1000 µM | NCI/ADR-RES > 25 µM | MDA-N > 925 µM | A498 > 25 µM | HL-60 24.5 µM | SF-539 > 25 µM | SNB-75 > 25 µM | NCI-H23 > 25 µM

CCOc1cc(NC(C)=O)ccc1C(=O)NN1C(=O)/C(=C/c2ccco2)N=C1c1ccccc1
inactive: HCC 2998 > 100 µM | SK-MEL-5 54.6 µM | BT-549 > 100 µM | SNB-19 > 100 µM | UO-31 61.7 µM | SN12C > 100 µM | LOX IMVI > 100 µM | COLO 205 > 100 µM | SW-620 > 100 µM | HOP-92 36.2 µM | OVCAR-3 > 100 µM | DU-145 > 100 µM | SR 41.5 µM | NCI/ADR-RES > 100 µM | MDA-N > 100 µM | A498 > 100 µM | HL-60 > 100 µM | SF-539 > 100 µM | SNB-75 > 100 µM | NCI-H23 > 100 µM

CCOP(=O)(OCC)C(Nc1ccc(F)cc1)c1ccccc1 (centres undefined)
inactive: HCC 2998 > 100 µM | SK-MEL-5 > 100 µM | BT-549 79.6 µM | SNB-19 > 100 µM | UO-31 82.2 µM | SN12C 43.8 µM | LOX IMVI > 100 µM | COLO 205 > 100 µM | SW-620 > 100 µM | HOP-92 94.6 µM | OVCAR-3 > 100 µM | DU-145 > 100 µM | SR 97.7 µM | NCI/ADR-RES > 100 µM | MDA-N 79.3 µM | A498 > 100 µM | HL-60 77.4 µM | SF-539 > 100 µM | SNB-75 > 100 µM | NCI-H23 > 100 µM

NC1=NCC(CN2CCCC2)O1 (centres undefined)
inactive: HCC 2998 > 100 µM | SK-MEL-5 > 100 µM | BT-549 > 100 µM | SNB-19 > 100 µM | UO-31 > 100 µM | SN12C > 100 µM | LOX IMVI > 100 µM | COLO 205 > 100 µM | SW-620 > 100 µM | HOP-92 > 100 µM | OVCAR-3 > 100 µM | DU-145 > 100 µM | SR > 100 µM | NCI/ADR-RES > 100 µM | MDA-N > 100 µM | A498 > 100 µM | HL-60 > 100 µM | SF-539 > 100 µM | SNB-75 > 100 µM | NCI-H23 > 100 µM

COc1ccc(/C(CC2OC(=O)c3ccccc32)=N\NC(N)=O)cc1 (centres undefined)
inactive: HCC 2998 > 100 µM | SK-MEL-5 > 100 µM | BT-549 > 100 µM | SNB-19 > 100 µM | UO-31 > 100 µM | SN12C > 100 µM | LOX IMVI > 100 µM | COLO 205 > 100 µM | SW-620 > 100 µM | HOP-92 > 100 µM | OVCAR-3 > 100 µM | DU-145 > 100 µM | SR > 100 µM | NCI/ADR-RES > 100 µM | MDA-N > 100 µM | A498 > 100 µM | HL-60 > 100 µM | SF-539 > 100 µM | SNB-75 > 100 µM | NCI-H23 > 100 µM
